Results on 2 substances are retold here after patent publication US12421227B2, “Ribociclib salts and solid state forms thereof” (ASSIA CHEMICAL INDUSTRIES LTD., priority 2017, dated 2025).

The conditions of series [1]: cited from earlier work.
For series [2] the following is noted: exposure to 90% RH; cited from earlier work.

Turning to Ribociclib succinate [Form B], the hygroscopicity result is “negligible hygroscopicity”.
For Ribociclib succinate, in series [1] (90% RH condition in each cycle), the “sorption/desorption behavior, hydrate formation” value is given as “formation of hydrate form is taking place”. The moisture absorbed entry in series [1] (at 90% RH in each cycle) is “up to 2%”. In addition, the hygroscopic behavior entry in series [1] (at high humidity conditions) is reported as “slight hygroscopic behavior”. Besides, in series [2], the “physical form on exposure to humidity” value is “change in physical form”.
